US20190287644A1, “Correlation Method To Identify Relevant Genes For Personalized Treatment Of Complex Disease” (Northeastern University, priority 2018, published 2019)

Columns and labels:
[1] = system: Nppa and Nppb; test: Expression of hypertrophic markers Nppa and Nppb in neonatal rat ventricular myocytes (qPCR); type: cell-based; conditions: NRVMs transfected with control siRNA
Procedure: (§1) Right ventricular myocytes were isolated and cultured, as reported using 2-4 day old rats. Myocytes and fibroblasts were separated with Percoll density gradient. For knockdown experiments cells were transfected with Hes1 siRNA using lipofectamine RNAimax (life technologies).
RNA isolation from cells was performed using Qiazol lysis reagent. cDNA synthesis was performed using the High Capacity Reverse Transcription cDNA Kit (Life Technologies). qPCR was performed using the LightCycler 480 (Roche).

[2] = system: neonatal rat ventricular myocytes (NRVMs); test: Cardiomyocyte cell cross-sectional area; type: cell-based; conditions: cells transfected with control siRNA, following ISO/PE treatment
Excerpt: as §1
Quantification of cardiomyocyte cell cross-sectional area was done following transfection with either control or Hes1 siRNA and a 48-hour treatment with control or isoproterenol or phenylepherine containing media. Images were taken on a Nikon Eclipse TE2000-U microscope. Images were analyzed using the Nikon Imagine System (NIS). 150 cells were used to compute the SEM.

[3] = system: Hybrid Mouse Diversity Panel (HMDP) strains; test: ISO-induced cardiac hypertrophy (total heart weight) in the Hybrid Mouse Diversity Panel; type: in vivo; conditions: across HMDP strains, three weeks after implantation of ISO pump (30 mg per kg per day, 21 days)
Procedure: 30 mg per kg body weight per day of Isoproterenol (ISO) was administered for 21 days in 8-10 week old female mice using ALZET osmotic mini-pumps, which were surgically implanted intraperitoneally. All animal experiments were conducted following guidelines established and approved by the University of California, Los Angeles Institutional Animal Care and Use Committee (IACUC) and housed in an IACUC-approved vivarium with daily monitoring by vivarium personnel.
As each mouse in a strain is genetically identical, several mice from the same strain were used for measuring the cardiac hypertrophic response to ISO treatment. […] Cardiac hypertrophy for a given strain was calculated as the increase in average total heart weight after ISO treatment compared to control mice.
One can also perform an entirely novel type of differential gene expression analysis owing to the fact that, in addition to control and treated subjects belonging to the same strain having the same genetic background, the change of heart mass in response to ISO, i.e., the ratio m′i/mi of total heart mass before (mi) and after ISO treatment (m′i) for strain i, can be measured for all strains (i=1, 2, . . . , N) to assess the degree of hypertrophy among different strains. […]

SMILES	increase of Nppa expression [1]	increase of Nppb expression [1]	cellular cross-sectional area [2]	increase of heart mass [3]
CC(C)NCC(O)c1ccc(O)c(O)c1 (stereo not shown) [ISO, isoproterenol]	3.5 fold	7.9 fold	doubled	≤ 80%
CNC[C@H](O)c1cccc(O)c1 [PE, phenylephrine]	11 fold	13 fold	doubled	
